According to US20100075926A1, “ACTIVATION OF HISTONE DEACETYLASE 1 (HDAC1) PROTECTS AGAINST DNA DAMAGE AND INCREASES NEURONAL SURVIVAL” (priority 2008, published 2010):

What was measured:
[1] = target: T1, recombinant human HDAC10 (Homo sapiens, UniProt Q969S8); test: Caliper mobility shift deacetylase assay, HDAC10; type: biochemical; details: at the indicated concentration (8-40 μM); avg. n = 2; relative to DMSO
T1 sequence (Q969S8 1-669): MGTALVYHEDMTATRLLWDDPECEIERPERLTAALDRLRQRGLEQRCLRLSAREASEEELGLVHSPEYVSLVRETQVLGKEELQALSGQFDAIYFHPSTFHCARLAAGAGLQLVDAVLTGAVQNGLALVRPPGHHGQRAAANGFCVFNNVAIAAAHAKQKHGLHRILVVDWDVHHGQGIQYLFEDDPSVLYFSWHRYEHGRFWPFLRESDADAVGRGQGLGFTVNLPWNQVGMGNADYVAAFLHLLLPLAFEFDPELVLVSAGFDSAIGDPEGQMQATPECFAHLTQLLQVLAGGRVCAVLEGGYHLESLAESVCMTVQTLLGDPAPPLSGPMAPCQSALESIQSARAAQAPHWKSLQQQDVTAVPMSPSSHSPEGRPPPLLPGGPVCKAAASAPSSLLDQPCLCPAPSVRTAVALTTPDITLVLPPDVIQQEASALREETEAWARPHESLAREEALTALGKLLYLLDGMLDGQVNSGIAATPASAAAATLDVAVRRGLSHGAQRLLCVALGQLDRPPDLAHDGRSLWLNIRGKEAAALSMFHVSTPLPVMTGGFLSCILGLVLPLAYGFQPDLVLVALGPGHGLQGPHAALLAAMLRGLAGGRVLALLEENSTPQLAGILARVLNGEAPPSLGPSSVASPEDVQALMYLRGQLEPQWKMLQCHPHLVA
Procedure: (§1) To identify small molecule activators of HDAC1, a diverse collection of 1,760 small molecules composed of synthetic compounds, natural products, and a subset of FDA approved drugs were arrayed in 384-well plates as ˜10 mM dimethylsulphoxide (DMSO) stocks. To identify modulators (both activators and inhibitors) of HDACs, a fluorescence-based assay that utilizes Caliper's mobility shift assay technology (Hopkinton, Mass.) was used. This assay is based on the electrophoretic separation of N-acetyl lysine peptide substrate from the deacetylated product, which bears an additional positive charge. […] The product and substrate in each independent reaction were separated using a microfluidic chip (Caliper Life Sciences) run on a Caliper LC3000 (Caliper Life Sciences). The product and substrate fluorophore were excited at 488 nm and detected at 530 nm. Substrate conversion was calculated from the electrophoregram using HTS Well Analyzer software (Caliper Life Sciences). Since the amount of converted substrate is measured, and the reactions were performed at the Km for each enzyme, it is possible to identify both inhibitors and activators of HDACs using this assay.
(§2) Using the mobility shift assay, all compounds were screened in duplicate using a panel of class I and class II HDACs and a N-acetyl lysine peptide substrate. For class I HDACs, HDAC1, HDAC2, and HDAC8 were used. For class IIb HDACs, HDAC6 and to HDAC10 were used. Compounds were incubated for 18-24 hrs and the percent inhibition (avg. n=2) relative to a solvent (DMSO) control treatment of each compound determined through measurement of substrate conversion.

[2] = target: T2, recombinant human HDAC1 (Homo sapiens, UniProt Q13547); test: Caliper mobility shift deacetylase assay, HDAC1; type: biochemical; details: at the indicated concentration (8-40 μM); avg. n = 2; relative to DMSO
T2 construct: purchased BPS Biosciences
T2 sequence (Q13547 whole entry): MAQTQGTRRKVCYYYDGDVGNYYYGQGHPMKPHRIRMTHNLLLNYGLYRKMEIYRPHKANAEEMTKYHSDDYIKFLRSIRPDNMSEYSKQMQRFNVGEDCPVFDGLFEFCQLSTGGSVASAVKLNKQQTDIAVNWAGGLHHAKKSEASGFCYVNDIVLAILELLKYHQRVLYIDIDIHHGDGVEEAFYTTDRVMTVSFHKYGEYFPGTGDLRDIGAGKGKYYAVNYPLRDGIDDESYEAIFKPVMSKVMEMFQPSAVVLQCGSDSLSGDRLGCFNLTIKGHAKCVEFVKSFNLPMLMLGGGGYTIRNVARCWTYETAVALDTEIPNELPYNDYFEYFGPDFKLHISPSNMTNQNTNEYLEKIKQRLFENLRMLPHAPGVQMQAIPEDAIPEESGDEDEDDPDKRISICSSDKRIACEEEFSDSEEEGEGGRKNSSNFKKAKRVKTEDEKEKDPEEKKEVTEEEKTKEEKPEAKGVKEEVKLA
Excerpt: (§3) Values indicate % deacetylase inhibition (avg. n=2) relative to a solvent (DMSO) control treatment measured using recombinant human HDAC1 or HDAC2 and Caliper's mobility shift assay technology. Circle color corresponds to compounds shaded by degree of HDAC1 activity (red, decreased; blue, increased). (A) Complete dataset with box outlined with the red dashes corresponding to the region shown highlighted in (B), which in the assay corresponds to negative inhibition.
as §1
as §2, with “conversion. […] FIG. 11 provides a list of all of the structures that activated HDAC1 by a value of 5% or greater.” for “conversion.”

[3] = target: T3, recombinant human HDAC2 (Homo sapiens, UniProt Q92769); test: Caliper mobility shift deacetylase assay, HDAC2; type: biochemical; details: at the indicated concentration (8-40 μM); avg. n = 2; relative to DMSO
T3 construct: purchased BPS Biosciences
T3 sequence (Q92769 whole entry): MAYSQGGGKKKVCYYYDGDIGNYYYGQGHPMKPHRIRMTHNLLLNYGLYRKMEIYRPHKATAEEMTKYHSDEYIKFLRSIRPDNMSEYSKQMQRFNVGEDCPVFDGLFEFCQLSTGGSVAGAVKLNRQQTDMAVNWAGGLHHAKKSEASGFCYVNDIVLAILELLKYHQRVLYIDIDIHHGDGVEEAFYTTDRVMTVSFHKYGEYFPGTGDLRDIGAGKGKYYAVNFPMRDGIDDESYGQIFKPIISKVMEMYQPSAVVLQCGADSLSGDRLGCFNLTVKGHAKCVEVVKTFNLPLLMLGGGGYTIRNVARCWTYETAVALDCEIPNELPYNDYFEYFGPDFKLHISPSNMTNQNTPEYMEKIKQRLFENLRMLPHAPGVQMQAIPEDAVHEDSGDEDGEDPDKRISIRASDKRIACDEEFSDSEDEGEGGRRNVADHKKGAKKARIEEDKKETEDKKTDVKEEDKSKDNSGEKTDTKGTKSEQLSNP
Excerpt: as §3, §1
as §2, with “conversion. […] FIG. 11 provides a list of all of the structures that activated HDAC1 by a value of 5% or greater.” for “conversion.”

[4] = target: T4, recombinant human HDAC6 (Homo sapiens, UniProt Q9UBN7); test: Caliper mobility shift deacetylase assay, HDAC6; type: biochemical; details: at the indicated concentration (8-40 μM); avg. n = 2; relative to DMSO
T4 sequence (Q9UBN7 1-1215): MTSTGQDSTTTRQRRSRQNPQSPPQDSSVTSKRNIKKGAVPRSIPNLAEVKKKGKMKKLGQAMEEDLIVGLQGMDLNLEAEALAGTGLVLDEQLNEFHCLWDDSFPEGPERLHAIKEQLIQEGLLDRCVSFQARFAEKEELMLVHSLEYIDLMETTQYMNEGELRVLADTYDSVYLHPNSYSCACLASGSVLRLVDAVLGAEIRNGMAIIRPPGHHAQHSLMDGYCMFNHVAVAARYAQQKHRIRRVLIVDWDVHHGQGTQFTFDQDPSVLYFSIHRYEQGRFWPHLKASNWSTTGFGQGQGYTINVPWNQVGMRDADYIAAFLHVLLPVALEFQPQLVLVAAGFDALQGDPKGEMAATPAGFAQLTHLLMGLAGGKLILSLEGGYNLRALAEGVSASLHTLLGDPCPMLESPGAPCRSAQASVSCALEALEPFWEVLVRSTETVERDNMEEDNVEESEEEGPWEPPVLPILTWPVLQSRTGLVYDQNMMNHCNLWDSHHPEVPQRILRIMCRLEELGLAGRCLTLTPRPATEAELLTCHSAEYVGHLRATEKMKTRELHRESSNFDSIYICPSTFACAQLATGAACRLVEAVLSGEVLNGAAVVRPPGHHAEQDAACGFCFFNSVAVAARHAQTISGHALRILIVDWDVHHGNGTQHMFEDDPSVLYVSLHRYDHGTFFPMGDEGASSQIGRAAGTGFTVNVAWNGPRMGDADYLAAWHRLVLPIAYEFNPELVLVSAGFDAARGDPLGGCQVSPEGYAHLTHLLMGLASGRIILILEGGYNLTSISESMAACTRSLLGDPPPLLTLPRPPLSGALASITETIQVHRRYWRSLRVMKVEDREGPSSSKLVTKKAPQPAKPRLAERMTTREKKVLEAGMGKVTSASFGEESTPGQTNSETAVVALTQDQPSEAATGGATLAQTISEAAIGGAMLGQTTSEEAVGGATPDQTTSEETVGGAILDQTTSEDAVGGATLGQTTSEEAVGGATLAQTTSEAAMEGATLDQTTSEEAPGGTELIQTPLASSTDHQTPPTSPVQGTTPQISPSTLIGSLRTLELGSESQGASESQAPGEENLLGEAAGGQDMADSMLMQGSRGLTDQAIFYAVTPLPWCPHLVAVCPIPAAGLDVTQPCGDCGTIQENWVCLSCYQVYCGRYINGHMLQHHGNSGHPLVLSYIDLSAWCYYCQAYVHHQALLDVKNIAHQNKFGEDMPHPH
Procedure: as §1, §2

[5] = target: T5, recombinant human HDAC8 (Homo sapiens, UniProt Q9BY41); test: Caliper mobility shift deacetylase assay, HDAC8; type: biochemical; details: at the indicated concentration (8-40 μM); avg. n = 2; relative to DMSO
T5 sequence (Q9BY41 1-377): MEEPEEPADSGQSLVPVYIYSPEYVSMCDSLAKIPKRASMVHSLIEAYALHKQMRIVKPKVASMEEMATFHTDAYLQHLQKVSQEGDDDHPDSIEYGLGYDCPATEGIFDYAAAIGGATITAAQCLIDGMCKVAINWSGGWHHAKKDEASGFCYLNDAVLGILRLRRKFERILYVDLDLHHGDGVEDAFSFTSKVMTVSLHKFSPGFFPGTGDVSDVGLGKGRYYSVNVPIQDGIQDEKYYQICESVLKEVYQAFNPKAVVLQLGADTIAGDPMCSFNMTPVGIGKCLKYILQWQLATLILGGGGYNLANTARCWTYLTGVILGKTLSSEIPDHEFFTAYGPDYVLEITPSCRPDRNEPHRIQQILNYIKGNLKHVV
Procedure: as §1, §2

[6] = tested on: brain-derived neurotrophic factor (BDNF) expression in glioma cell line (C6); test: BDNF expression in glioma cell line (C6); type: cell-based; details: submicromolar concentrations, data not shown

For ginkgetin K [genxgetin K], the “HDAC10 % activation of deacetylase activity” value (“HDAC10 % activation” for short) [1] was 56%, the “HDAC1 % activation of deacetylase activity” value (shortened to “HDAC1 % activation”) [2] was 42% and the “HDAC2 % activation of deacetylase activity” value (shortened to “HDAC2 % activation”) [3] was −7%. For the same compound, the “HDAC6 % activation of deacetylase activity” value (shortened to “HDAC6 % activation”) [4] was −18% and the “HDAC8 % activation of deacetylase activity” value (shortened to “HDAC8 % activation”) [5] was −3%.

CC1=NN(c2ccc(Br)cc2Br)C(=O)/C1=C(/C)NCc1ccccc1 [TAM-12] was tested, and the “HDAC10 % activation” value [1] was −3%, the “HDAC1 % activation” value [2] was 5% and the “HDAC2 % activation” value [3] was −1%. For the same compound, the “HDAC6 % activation” value [4] was −4% and the “HDAC8 % activation” value [5] was 2%.

In the case of O=C(CCCCCCC(=O)Nc1ccccc1)NO [SAHA, suberoylanilide hydroxamic acid], the “expression of brain-derived neurotrophic factor (BDNF)” value [6] is reported as “induced expression”.

For COc1ccc(-c2cc(=O)c3c(O)cc(O)c(-c4cc(-c5cc(=O)c6c(O)cc(OC)cc6o5)ccc4OC)c3o2)cc1 [sciadopitysin], the “HDAC10 % activation” value [1] was 19%, the “HDAC1 % activation” value [2] was 19% and the “HDAC2 % activation” value [3] was −4%. For the same compound, the “HDAC6 % activation” value [4] was −5% and the “HDAC8 % activation” value [5] was 0%.

For CC(=O)N(O)CCCCCNC(=O)CCC(=O)N(O)CCCCCNC(=O)CCC(=O)N(O)CCCCCN [deferoxamine], the “HDAC10 % activation” value [1] was 2%, the “HDAC1 % activation” value [2] was 8% and the “HDAC2 % activation” value [3] was −3%. The “HDAC6 % activation” value [4] was −5% and the “HDAC8 % activation” value [5] was 4%.
